# Experimental data reported in ChEMBL document CHEMBL4819024, “Synthesis and evaluation of andrographolide derivatives as potent anti-osteoporosis agents in vitro and in vivo” (Eur J Med Chem, 2021).
# The source made the active and inactive calls. The calls are words filed in the database; no cut-off is given here.
# Tests used:
# BMMC [1] = assay: Anti-osteoporosis activity in C57BL/6 mouse BMM cells assessed as inhibition of M-CSF/RANKL-induced osteoclastogenesis by measuring reduction in multinucleated TRAP+ cells incubated for 5 days with media replenishment for every 48 hrs measured by TRAP-staining based analysis; type: functional, cell-based; conditions: C57BL/6, BMMC
# BMMC [2] = assay: Cytotoxicity against C57BL/6 mouse BMM cells assessed as reduction in cell viability at 30 uM measured after 48 hrs in presence of M-CSF by CCK8 assay; type: cell-based
# BMMC [3] = assay: Anti-osteoporosis activity in C57BL/6 mouse BMM cells assessed as inhibition of M-CSF/RANKL-induced bone resorption by measuring suppression of reabsorbing pits formation after 48 hrs by hydroxyapatite assay using Leica inverted microscope; type: functional, cell-based; conditions: dose 1-10 µM
# Mus musculus = assay: Antiosteoporotic activity against OVX-induced bone loss C57BL/6 mouse model assessed as decrease in PINP secretion in serum at 10 mg/kg, po QD for 4 weeks; type: functional, organism-based; conditions: dose 10.0 mg/kg/day
# [4] = molecular target: c-Jun N-terminal kinase (Mus musculus) (UniProt Q91Y86+Q9WTU6+Q61831); assay: Inhibition of RANKL-induced JNK phosphorylation in mouse RAW264.7 cells at 1 to 10 uM pretreated for 4 hrs prior to RANKL stimulation for 20 mins by western blot analysis; type: cell-based; conditions: dose 1-10 µM, time 260.0 min
# c-Jun N-terminal kinase (Mus musculus), sequence (Q61831 whole entry, looked up): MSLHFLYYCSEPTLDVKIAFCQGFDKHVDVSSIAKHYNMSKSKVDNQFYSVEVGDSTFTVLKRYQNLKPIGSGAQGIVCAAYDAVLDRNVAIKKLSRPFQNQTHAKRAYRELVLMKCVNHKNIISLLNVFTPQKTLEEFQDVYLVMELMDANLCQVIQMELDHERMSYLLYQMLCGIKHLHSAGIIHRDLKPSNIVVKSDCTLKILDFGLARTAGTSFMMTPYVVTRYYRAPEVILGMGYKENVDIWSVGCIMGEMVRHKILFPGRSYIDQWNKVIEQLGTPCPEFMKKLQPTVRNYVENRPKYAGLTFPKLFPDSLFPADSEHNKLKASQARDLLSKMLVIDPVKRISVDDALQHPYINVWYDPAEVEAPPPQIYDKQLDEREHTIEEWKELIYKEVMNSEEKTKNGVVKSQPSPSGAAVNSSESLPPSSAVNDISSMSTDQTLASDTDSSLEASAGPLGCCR
# c-Jun N-terminal kinase (Mus musculus), sequence (Q91Y86 whole entry, looked up): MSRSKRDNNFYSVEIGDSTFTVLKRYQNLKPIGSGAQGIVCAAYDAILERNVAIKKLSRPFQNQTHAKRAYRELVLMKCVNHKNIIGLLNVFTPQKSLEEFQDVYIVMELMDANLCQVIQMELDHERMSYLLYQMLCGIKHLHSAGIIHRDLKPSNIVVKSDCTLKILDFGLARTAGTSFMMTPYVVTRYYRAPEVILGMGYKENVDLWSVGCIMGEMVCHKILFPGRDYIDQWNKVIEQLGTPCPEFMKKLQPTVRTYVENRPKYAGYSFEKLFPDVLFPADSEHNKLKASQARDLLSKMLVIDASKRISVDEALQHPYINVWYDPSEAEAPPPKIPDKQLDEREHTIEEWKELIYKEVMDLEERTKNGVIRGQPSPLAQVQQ
# c-Jun N-terminal kinase (Mus musculus), sequence (Q9WTU6 whole entry, looked up): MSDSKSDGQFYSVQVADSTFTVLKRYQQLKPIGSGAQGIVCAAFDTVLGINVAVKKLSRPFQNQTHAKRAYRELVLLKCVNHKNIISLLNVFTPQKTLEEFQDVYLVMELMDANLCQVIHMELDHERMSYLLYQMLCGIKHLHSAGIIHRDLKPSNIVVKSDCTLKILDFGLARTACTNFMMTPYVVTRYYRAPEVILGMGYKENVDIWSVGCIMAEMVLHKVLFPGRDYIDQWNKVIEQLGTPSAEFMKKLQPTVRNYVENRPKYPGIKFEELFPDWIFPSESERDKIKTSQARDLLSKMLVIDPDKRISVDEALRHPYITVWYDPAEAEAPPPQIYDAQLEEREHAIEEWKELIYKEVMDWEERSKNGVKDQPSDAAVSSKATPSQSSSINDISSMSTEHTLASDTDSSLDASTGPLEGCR
# [5] = Toxicity in OVX-induced bone loss C57BL/6 mouse model assessed as effect on heart morphology at 10 mg/kg, po QD for 4 weeks; type: organism-based; conditions: in vivo, 672 h
# [6] = Toxicity in OVX-induced bone loss C57BL/6 mouse model assessed as effect on thymus morphology at 10 mg/kg, po QD for 4 weeks; type: organism-based; conditions: in vivo, 672 h, dose 10 mg/kg/day
# [7] = Toxicity in OVX-induced bone loss C57BL/6 mouse model assessed as effect on serum ALT level at 10 mg/kg, po QD for 4 weeks; type: organism-based; conditions: in vivo, 672 h, dose 10 mg/kg/day
# [8] = Toxicity in OVX-induced bone loss C57BL/6 mouse model assessed as effect on serum AST level at 10 mg/kg, po QD for 4 weeks; type: organism-based; conditions: in vivo, 672 h, dose 10 mg/kg/day
# [9] = Toxicity in OVX-induced bone loss C57BL/6 mouse model assessed as effect on serum GLU level at 10 mg/kg, po QD for 4 weeks; type: organism-based; conditions: in vivo, 672 h, dose 10 mg/kg/day
# [10] = Toxicity in OVX-induced bone loss C57BL/6 mouse model assessed as effect on serum creatinine level at 10 mg/kg, po QD for 4 weeks; type: organism-based; conditions: in vivo, 672 h, dose 10 mg/kg/day
# [11] = Toxicity in OVX-induced bone loss C57BL/6 mouse model assessed as effect on serum LDH level at 10 mg/kg, po QD for 4 weeks; type: organism-based; conditions: in vivo, 672 h, dose 10 mg/kg/day
compound,measurement,setting,value
C=C1CC[C@@H]2[C@](C)(CNCc3ccc(F)cc3)[C@H](O)CC[C@@]2(C)[C@@H]1/C=C/C1=CCOC1=O,IC50,BMMC [1],350 nM
same,Activity,BMMC [2],Non-Toxic
same,Activity,BMMC [3],Dose-Dependent Effect
same,Activity,Mus musculus,Active
same,inhibition,[4],inactive
same,Activity,[5],Non-Toxic
same,Activity,[6],Non-Toxic
same,Activity,[7],Non-Toxic
same,Activity,[8],Non-Toxic
same,Activity,[9],Non-Toxic
same,Activity,[10],Non-Toxic
same,Activity,[11],Non-Toxic
